From patent publication US7767674B2, “Kinase inhibitors” (Eli Lilly and Company, priority 2004, dated 2010)

Key:
[1] = target: p38 kinase enzyme (Homo sapiens, UniProt Q16539); test: Inhibition of p38 kinase (33P-ATP, EGF peptide 661-681 substrate); assay type: biochemical; details: 33P-ATP assay, 40 min at 30° C.
Procedure: The kinase buffer solution is prepared by combining 2.5 mL 1M Tris-HCl (pH 7.5), 0.1 mL 1M dithiothreitol, 1.0 mL 1M magnesium chloride, and 300 μL 1% Triton X-100 and diluting to 100 mL with water. 84 mL of this kinase buffer solution is combined with 16 mL DMSO to prepare the 16% DMSO solution.
The 200 μM ATP solution is prepared by adding 102.6 μL 10 mM aqueous ATP, 25 μL ^33P-ATP, and 163.5 μL of 4 mM aqueous Epidermal Growth Factor Peptide 661-681 (Biomol, Catalog #P-121) in 5 mL kinase buffer solution.
The p38 kinase enzyme solution is prepared by dissolving 9.5 μL concentrated enzyme solution (250 ng p38 enzyme/μL kinase buffer solution) in 1536 μL kinase buffer solution.
An 80 μM solution of each test compound and control compound are prepared by dissolving 2 μL of a 10 mM stock solution of the respective compounds in dimethylsulfoxide in 248 μL of the 16% DMSO solution in a Costar 96-well microtiter plate. The plate is placed onto the Tecan Genesis automated liquid handler for 1:3 serial dilutions.
10 μL of serially diluted compound is placed with a Beckman Multimek 96-well automated liquid handler to the assay plate. 20 μL of 200 μM ATP solution is added with a Titertek Multidrop 8-channel liquid handler. 10 μL of p38 kinase enzyme solution is transferred to the assay plate using the Multimek. The mixture is allowed to react for 40 min at 30° C. and then the reaction is stopped by adding 60 μL of freshly prepared 5% glacial AcOH with Multidrop. 80 μL of this solution is transferred to an “MAPH” plate using the Multimek. The plates are allowed to set for 30 min at room temperature and then washed/aspirated on the Titertek MAP extractor with freshly prepared 0.5% glacial AcOH (1×300 μL, 2×200 μL). […] The plates are allowed to sit for 30 min and counted on a PE/Wallac Microbeta Trilux scintillation counter for ^33P-isotope.
All exemplified compounds are initially tested at 10 concentrations (20 μM-1 nM using 1:3 serial dilutions). […] IC50 values are calculated (IDBS ActivityBase software) for each compound using non-linear regression. […]

[2] = tested on: TNF-α production in mouse peritoneal macrophages; test: Inhibition of TNF-α in vitro, LPS/interferon-γ stimulated mouse peritoneal macrophages, Luminex detection; assay type: cell-based; details: Peritoneal macrophage, LPS 50 ng/mL + interferon-γ 10 U/mL, 18 hr, read-out: IC50, suppression of TNF-α in vitro
Procedure: 1 mL thioglycolate broth (5.0 g yeast extract, 15.0 g casitone or trypticase, 5.0 g dextrose, 2.5 g sodium chloride, 0.75 g L-cystine, 0.5 g sodium thioglycolate, 1.0 mg resazurin, and 0.75 g agar in 1.0 L distilled water) are injected into the peritoneal cavity of Balb/C female mice. At day 4 or 5 post-injection the mice are sacrificed and then injected i.p. with 4 mL RPMI-1640 medium (BioWhittaker) and the peritoneal macrophages are withdrawn by syringe. Mouse peritoneal microphages are counted with a hemocytometer and adjusted to 5×10^5 cells/well in 96-well plates in RPMI-1640 medium with 10% fetal bovine serum. 200 μL/well is plated in 96-well plates and the cells allowed to settle and adhere to the bottom of the well for at least 3 hr. The test compound or standard p38 kinase inhibitor is pre-treated using a series of 8 concentrations for 1 hr at 37° C. (20 μL/well). The cells are treated with a mixture of 50 ng/mL lipopolysaccharide (LPS) and 10 U/mL interferon-γ for 18 hr at 37° C. (20 μL/well). The conditioned media is harvested and assayed for TNF-α production using the Luminex procedure. […] Standards and samples are read on a Luminex machine. These intensity readings are then converted to picogram/milliliter units based on a 12-point standard curve created in duplicate using a four-parameter logistic regression method (Bio-Plex Manager 2.0, Bio-Rad), and the IC50 calculated.

[3] = tested on: TNFa-levels in the plasma; test: Inhibition of TNF in vivo, LPS-challenged mice, plasma TNFa by ELISA; details: p.o., female Balb/c mice, LPS IP 400 ug/kg 1 hr after compound, plasma 1.5 hrs after LPS
Procedure: Compounds are administered p.o. (30, 10, 3 and 1 mg/kg) to female Balb/c mice (6 mice/dose). 1 hr following compound administration at 4 doses (P.O. at volume of 0.1 mL/mouse; vehicle: 1% NaCMC/0.25% Tween-80 in water); mice are given an IP-injection of LPS at 400 ug/kg. 1.5 hrs after LPS challenging, mice are anesthetized with isoflurane and blood is taken via cardiac puncture. TNFa-levels in the plasma are determined using ELISA kit from R&D Systems and dose response ED50 is determined.

[4] = tested on: TNF-α in synovial lavage fluid; test: Effect on intra-articular LPS induced TNF-α, rat ankle synovial lavage fluid; assay type: in vivo; details: oral, female Lewis rats, intra-articular LPS 10 μg one hour after compound, lavage after two hours, read-out: ED50, inhibition of TNF-α synthesis in synovial lavage fluid
Procedure: Intra-articular injection of LPS into rat ankles induces the synthesis of TNF-α, which can be measured in synovial lavage fluid. High levels of TNF-α are detectable within 2 hours. Since the joint is the site where arthritis develops, this model can rapidly determine whether an orally administered compound has an effect on an inflammatory response in the synovium.
Six female Lewis rats (150-200 g) are place in each treatment group. The animals are given vehicle (1% NaCarboxymethylcellulose-0.25% Tween 80) or test compound (1 mg/kg, 3 mg/kg, 10 mg/kg, and 30 mg/kg) orally. One hour later, 10 μl LPS (10 μg) is administered intra-articularly into the right ankle of each rat, while the left ankle receives 10 μL of saline. After two hours, each ankle is lavaged with 100 μL of saline. The lavage is collected and stored at −80° C.
TNF-α is measured with a commercially available ELISA kit (R&D, RTA00). Treatment with Example 100 produced a dose response inhibition of TNF-α synthesis, as measured in the synovial lavage fluid with ED50=30 mg/kg.

p38 kinase enzyme, sequence (Q16539 whole entry): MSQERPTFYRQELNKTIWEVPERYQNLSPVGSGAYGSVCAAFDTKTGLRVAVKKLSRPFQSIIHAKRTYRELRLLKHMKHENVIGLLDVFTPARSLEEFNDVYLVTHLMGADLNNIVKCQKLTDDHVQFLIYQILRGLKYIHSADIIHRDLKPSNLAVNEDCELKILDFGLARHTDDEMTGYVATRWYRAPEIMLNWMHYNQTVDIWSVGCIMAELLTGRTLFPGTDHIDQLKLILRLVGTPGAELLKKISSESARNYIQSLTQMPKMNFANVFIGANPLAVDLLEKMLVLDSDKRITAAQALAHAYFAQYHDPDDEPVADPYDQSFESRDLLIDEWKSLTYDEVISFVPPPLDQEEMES

Row | IC50 [1] [nM] | IC50 [2] [nM] | Structure (SMILES) | TMED50, suppression of TNF in vivo [3] [mg/kg] | ED50 [4] [mg/kg]
1 | 91 | – | Cc1ccc(-n2nc(C(C)(C)C)cc2NC(=O)Nc2ccc(N3CCN(C(=O)C(C)(C)C)CC3)cc2)cc1 [Example 136] | – | –
2 | 19 | – | Cn1nc(C(C)(C)C)cc1NC(=O)Nc1cc(F)cc(OC2CCN(C(=O)C(C)(C)C)CC2)c1 [Example 70, 1-(5-tert-Butyl-2-methyl-2H-pyrazol-3-yl)-3-{3-[1-(2,2-dimethyl-propionyl)-piperidin-4-yloxy]-5-fluoro-phenyl}-urea] | – | –
3 | 10 | 11 | Cn1nc(C(C)(C)C)cc1NC(=O)Nc1ccc(CN2CCN(C(=O)c3c(F)cccc3F)CC2)cc1 [Example 100] | 2.4 | 30
